Measured values taken from EP4725957A1, “GROUP OF CYCLIC ALKALINE LIPOPEPTIDE COMPOUNDS, AND PREPARATION METHOD THEREFOR AND USE THEREOF” (Institute of Medicinal Biotechnology, Chinese Academy of …, priority 2023, dated 2024).
≈ marks a conversion by molar mass, not a printed value. Read-outs that look alike come from different tables or passages of the source. Bridge positions count the residues as written; N and C are the ends. Square brackets hold non-standard residues; d marks the D form. Peptide text beside a SMILES is read from it. * marks the point of attachment. Dab(CH2SO3H) = N[C@@H](CCNCS(=O)(=O)O)C(=O)O; Heptanoyl(6-Me) = CC(C)CCCCC(=O)*; Sulfomethyl = O=S(=O)(O)C*; dOrn = NCCC[C@@H](N)C(=O)O; Nonanoyl = CCCCCCCCC(=O)*; X1 = CC[C@H](C)CCCCC(=O)*; dDab = NCC[C@@H](N)C(=O)O; Heptanoyl = CCCCCCC(=O)*; Orn = NCCC[C@H](N)C(=O)O; dDap = NC[C@@H](N)C(=O)O; Dab = NCC[C@H](N)C(=O)O; Dap = NC[C@H](N)C(=O)O

What was measured:
Format in all cases: cell-based
[1] = Nephrotoxicity assay: in vitro cytotoxicity of HK-2 cells by CCK-8 assay; details: human, HK-2 cells (human renal), 72 h incubation with drug-containing medium
Procedure, shortened: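 Compounds in sterile water, diluted to final 500, 250, 200, 100, 50, 25 and 12.5 µg/mL, were applied for 72 h to human HK-2 kidney cells. Absorbance at 450 nm after 3 h CCK-8 gave viability against untreated wells, and IC50 came from logarithmic regression; three replicates.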

[2] = tested on: Acinetobacter baumannii ABA19-1
Procedure, shortened: (§1)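 The MIC value comes from CLSI broth microdilution after 16-20 h at 35-37°C. Cyclic lipopeptides in Mueller-Hinton broth spanned 64 to 0.03 mg/L final, with each well carrying (2-4) × 10^5 CFU/mL.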

[3] = tested on: Klebsiella pneumoniae ATCC BAA-1705 (KPC)
Procedure, shortened: as §1

[4] = tested on: Escherichia coli ATCC BAA-2523
Procedure, shortened: as §1

[5] = tested on: Escherichia coli ATCC BAA-2340 (KPC)
Procedure, shortened: as §1

[6] = tested on: Pseudomonas aeruginosa ATCC 27853
Procedure, shortened: as §1

[7] = tested on: Klebsiella pneumoniae KPN+19-15
Procedure, shortened: as §1

[8] = tested on: Pseudomonas aeruginosa PAE19-3
Procedure, shortened: as §1

[9] = tested on: Acinetobacter baumannii NCTC 13304 (OXA-27)
Procedure, shortened: as §1

Structure (SMILES)	IC50 at 72 h [1]	MIC ([2]; ABA19-1)	MIC ([3]; ATCC BAA-1705)	MIC ([4]; ATCC BAA-2523)	MIC ([5]; ATCC BAA-2340)	MIC ([6]; ATCC 27853)	MIC ([7]; KPN+19-15)	MIC ([8]; PAE19-3)	MIC ([9]; NCTC 13304)	MIC ([2]; Acinetobacter baumannii ABA19-1)	MIC ([3]; Klebsiella pneumoniae ATCC BAA-1705 (KPC))	MIC ([4]; Escherichia coli ATCC BAA-2523)	MIC ([5]; Escherichia coli ATCC BAA-2340 (KPC))	MIC ([6]; Pseudomonas aeruginosa ATCC27853)	MIC ([7]; Klebsiella pneumoniae KPN 19-15)	MIC ([8]; Pseudomonas aeruginosa PAE19-3)	MIC ([9]; Acinetobacter baumannii NCTC 13304 (OXA-27))
CCCCCCCCC(=O)N[C@@H](CCN)C(=O)N[C@H](C(=O)N[C@H](CCCN)C(=O)N[C@H]1CCNC(=O)[C@H]([C@@H](C)O)NC(=O)[C@H](CCN)NC(=O)[C@H](CCN)NC(=O)[C@H](CC(C)C)NC(=O)[C@@H](Cc2ccccc2)NC(=O)[C@H](CCN)NC1=O)[C@@H](C)O [Compound 45, Nonanoyl-Dab-Thr-D-Orn-ring(4-10)[Dab-Dab-D-Phe-Leu-Dab-Dab-Thr]] (Nonanoyl-[Dab]T[dOrn][Dab][Dab][dF]L[Dab][Dab]T; lactam 4-C)	139 ± 6.7 µg/mL (≈ 114 µM)	0.125 µg/mL (≈ 0.103 µM)	0.06 µg/mL (≈ 0.0493 µM)	0.06 µg/mL (≈ 0.0493 µM)	0.06 µg/mL (≈ 0.0493 µM)	0.5 µg/mL (≈ 0.411 µM)	0.125 µg/mL (≈ 0.103 µM)	2 µg/mL (≈ 1.64 µM)	0.06 µg/mL (≈ 0.0493 µM)	–	–	–	–	–	–	–	–
CC(C)CCCCC(=O)N[C@@H](CCN)C(=O)N[C@H](C(=O)N[C@H](CN)C(=O)N[C@H]1CCNC(=O)[C@H]([C@@H](C)O)NC(=O)[C@H](CCN)NC(=O)[C@H](CCN)NC(=O)[C@H]([C@@H](C)O)NC(=O)[C@H](Cc2ccccc2)NC(=O)[C@H](CCN)NC1=O)[C@@H](C)O [Compound 102, 6-methylheptanoyl-Dab-Thr-D-Dap-ring(4-10)[Dab-Dab-Phe-Thr-Dab-Dab-Thr]] ({Heptanoyl(6-Me)}-[Dab]T[dDap][Dab][Dab]FT[Dab][Dab]T; lactam 4-C)	> 500 µg/mL	–	–	–	–	–	–	–	–	>64 µg/mL	>64 µg/mL	>64 µg/mL	>64 µg/mL	>64 µg/mL	>64 µg/mL	>64 µg/mL	>64 µg/mL
CC(C)CCCCC(=O)N[C@@H](CCN)C(=O)N[C@H](C(=O)N[C@H](CO)C(=O)N[C@H]1CCNC(=O)[C@H]([C@@H](C)OCS(=O)(=O)O)NC(=O)[C@H](CCN)NC(=O)[C@H](CCN)NC(=O)[C@H]([C@@H](C)O)NC(=O)[C@@H](Cc2ccccc2)NC(=O)[C@H](CCN)NC1=O)[C@@H](C)O [Compound 106, 6-methylheptanoyl-Dab-Thr-D-Ser-ring(4-10)[Dab-Dab-D-Phe-Thr-Dab-Dab-Thr(CH2SO3H)]] ({Heptanoyl(6-Me)}-[Dab]T[dS][Dab][Dab][dF]T[Dab][Dab]T(Sulfomethyl); lactam 4-C)	> 500 µg/mL	0.06 µg/mL (≈ 0.0477 µM)	0.125 µg/mL (≈ 0.0993 µM)	0.03 µg/mL (≈ 0.0238 µM)	0.03 µg/mL (≈ 0.0238 µM)	0.25 µg/mL (≈ 0.199 µM)	0.125 µg/mL (≈ 0.0993 µM)	0.25 µg/mL (≈ 0.199 µM)	0.06 µg/mL (≈ 0.0477 µM)	–	–	–	–	–	–	–	–
CC(C)CCCCC(=O)N[C@@H](CCN)C(=O)N[C@H](C(=O)N[C@@H](CCN)C(=O)N[C@H]1CCNC(=O)[C@H]([C@@H](C)O)NC(=O)[C@H](CCN)NC(=O)[C@H](CCN)NC(=O)[C@H]([C@@H](C)O)NC(=O)[C@@H](Cc2ccccc2)NC(=O)[C@H](CCN)NC1=O)[C@@H](C)O [Compound 17, 6-methylheptanoyl-Dab-Thr-Dab-ring(4-10)[Dab-Dab-D-Phe-Thr-Dab-Dab-Thr]] ({Heptanoyl(6-Me)}-[Dab]T[Dab][Dab][Dab][dF]T[Dab][Dab]T; lactam 4-C)	> 500 µg/mL	0.5 µg/mL (≈ 0.425 µM)	0.5 µg/mL (≈ 0.425 µM)	0.06 µg/mL (≈ 0.051 µM)	≤0.03 µg/mL	0.5 µg/mL (≈ 0.425 µM)	≤0.03 µg/mL	0.5 µg/mL (≈ 0.425 µM)	0.25 µg/mL (≈ 0.212 µM)	–	–	–	–	–	–	–	–
CC(C)CCCCC(=O)N[C@@H](CCN)C(=O)N[C@H](C(=O)N[C@H](CO)C(=O)N[C@H]1CCNC(=O)[C@H]([C@@H](C)O)NC(=O)[C@H](CCNCS(=O)(=O)O)NC(=O)[C@H](CCN)NC(=O)[C@H]([C@@H](C)O)NC(=O)[C@@H](Cc2ccccc2)NC(=O)[C@H](CCN)NC1=O)[C@@H](C)O [Compound 111, 6-methylheptanoyl-Dab-Thr-D-Ser-ring(4-10)[Dab-Dab-D-Phe-Thr-Dab-Dab(CH2SO3H)-Thr]] ({Heptanoyl(6-Me)}-[Dab]T[dS][Dab][Dab][dF]T[Dab][Dab(CH2SO3H)]T; lactam 4-C)	> 500 µg/mL	0.25 µg/mL (≈ 0.199 µM)	0.125 µg/mL (≈ 0.0993 µM)	0.06 µg/mL (≈ 0.0477 µM)	0.06 µg/mL (≈ 0.0477 µM)	0.25 µg/mL (≈ 0.199 µM)	0.125 µg/mL (≈ 0.0993 µM)	0.5 µg/mL (≈ 0.397 µM)	0.06 µg/mL (≈ 0.0477 µM)	–	–	–	–	–	–	–	–
CCCCCCCCC(=O)N[C@@H](CN)C(=O)N[C@H](C(=O)N[C@H](CCN)C(=O)N[C@H]1CCNC(=O)[C@H]([C@@H](C)O)NC(=O)[C@H](CCN)NC(=O)[C@H](CCN)NC(=O)[C@H](CC(C)C)NC(=O)[C@@H](Cc2ccccc2)NC(=O)[C@H](CCN)NC1=O)[C@@H](C)O [Compound 95, Nonanoyl-Dap-Thr-D-Dab-ring(4-10)[Dab-Dab-D-Phe-Leu-Dab-Dab-Thr]] (Nonanoyl-[Dap]T[dDab][Dab][Dab][dF]L[Dab][Dab]T; lactam 4-C)	113 ± 10.3 µg/mL (≈ 94.8 µM)	0.06 µg/mL (≈ 0.0504 µM)	0.06 µg/mL (≈ 0.0504 µM)	0.125 µg/mL (≈ 0.105 µM)	0.125 µg/mL (≈ 0.105 µM)	1 µg/mL (≈ 0.841 µM)	0.06 µg/mL (≈ 0.0504 µM)	1 µg/mL (≈ 0.841 µM)	0.06 µg/mL (≈ 0.0504 µM)	–	–	–	–	–	–	–	–
CC[C@H](C)CCCCC(=O)N[C@@H](CCN)C(=O)N[C@H](C(=O)N[C@H](CO)C(=O)N[C@H]1CCNC(=O)[C@H]([C@@H](C)O)NC(=O)[C@H](CCCN)NC(=O)[C@H](CCN)NC(=O)[C@H]([C@@H](C)O)NC(=O)[C@@H](Cc2ccccc2)NC(=O)[C@H](CCN)NC1=O)[C@@H](C)O [Compound 86, (S)-6-methyloctanoyl-Dab-Thr-D-Ser-ring(4-10)[Dab-Dab-D-Phe-Thr-Dab-Orn-Thr]] (X1-[Dab]T[dS][Dab][Dab][dF]T[Dab][Orn]T; lactam 4-C)	> 500 µg/mL	0.06 µg/mL (≈ 0.0503 µM)	0.25 µg/mL (≈ 0.21 µM)	0.03 µg/mL (≈ 0.0252 µM)	0.03 µg/mL (≈ 0.0252 µM)	>64 µg/mL	0.5 µg/mL (≈ 0.419 µM)	64 µg/mL (≈ 53.7 µM)	≤0.03 µg/mL	–	–	–	–	–	–	–	–
CCCCCCC(=O)N[C@@H](CCN)C(=O)N[C@H](C(=O)N[C@H](CO)C(=O)N[C@H]1CCNC(=O)[C@H]([C@@H](C)O)NC(=O)[C@H](CCCN)NC(=O)[C@H](CCN)NC(=O)[C@H]([C@@H](C)O)NC(=O)[C@@H](Cc2ccccc2)NC(=O)[C@H](CCN)NC1=O)[C@@H](C)O [Compound 89, Heptanoyl-Dab-Thr-D-Ser-ring(4-10)[Dab-Dab-D-Phe-Thr-Dab-Orn-Thr]] (Heptanoyl-[Dab]T[dS][Dab][Dab][dF]T[Dab][Orn]T; lactam 4-C)	> 500 µg/mL	0.06 µg/mL (≈ 0.0515 µM)	0.25 µg/mL (≈ 0.215 µM)	0.125 µg/mL (≈ 0.107 µM)	0.125 µg/mL (≈ 0.107 µM)	>64 µg/mL	0.5 µg/mL (≈ 0.429 µM)	64 µg/mL (≈ 55 µM)	0.03 µg/mL (≈ 0.0258 µM)	–	–	–	–	–	–	–	–
CC[C@H](C)CCCCC(=O)N[C@@H](CCN)C(=O)N[C@H](C(=O)N[C@H](CO)C(=O)N[C@H]1CCNC(=O)[C@H]([C@@H](C)O)NC(=O)[C@H](CCN)NC(=O)[C@H](CCCN)NC(=O)[C@H]([C@@H](C)O)NC(=O)[C@@H](Cc2ccccc2)NC(=O)[C@H](CCN)NC1=O)[C@@H](C)O [Compound 76, (S)-6-methyloctanoyl-Dab-Thr-D-Ser-ring(4-10)[Dab-Dab-D-Phe-Thr-Orn-Dab-Thr]] (X1-[Dab]T[dS][Dab][Dab][dF]T[Orn][Dab]T; lactam 4-C)	> 500 µg/mL	0.06 µg/mL (≈ 0.0503 µM)	0.25 µg/mL (≈ 0.21 µM)	≤0.03 µg/mL	≤0.03 µg/mL	>64 µg/mL	0.5 µg/mL (≈ 0.419 µM)	64 µg/mL (≈ 53.7 µM)	≤0.03 µg/mL	–	–	–	–	–	–	–	–
